What was measured:
Type in all cases: cell-based
[1] = target: T1, RXRα (Homo sapiens, UniProt P19793); assay: Gal4-hybrid reporter gene assay RXRα; conditions: n ≥ 3; for fold act. RXRα: mean, Fig. 8; for EC50 / EC50 RXRα: HEK293T, Gal4-hybrid reporter, Inactive = tested 1–300 μM; for EC50 / max. fold activation RXRα / EC50 RXRα: mean ± S.E.M.; for max. fold activation RXRα: maximum reporter activation vs DMSO (0.1%) treated cells
T1 construct: expressed in transfected cells; host or cells: HEK293T
T1 sequence (P19793 227-458 limits assumed): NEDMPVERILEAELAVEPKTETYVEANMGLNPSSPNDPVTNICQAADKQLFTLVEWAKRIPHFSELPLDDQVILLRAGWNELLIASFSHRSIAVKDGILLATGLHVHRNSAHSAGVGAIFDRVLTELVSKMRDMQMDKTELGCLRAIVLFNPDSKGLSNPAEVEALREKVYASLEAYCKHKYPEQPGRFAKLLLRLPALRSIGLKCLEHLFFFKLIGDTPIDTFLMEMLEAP
Description: (§1) NR modulation was determined as described previously[45] in Gal4 hybrid reporter gene assays in HEK293T cells (German Collection of Microorganisms and Cell Culture GmbH, DSMZ) using pFR-Luc (Stratagene, La Jolla, CA, USA; reporter), pRL-SV40 (Promega, Madison, WI, USA; internal control) and the hybrid receptor clones pFA-CMV-hTHRα-LBD,[46] pFA-CMV-hPPARγ-LBD,[47] pFA-CMV-hFXR-LBD,[48] and pFA-CMV-hRXRα-LBD,[49] coding for the hinge region and ligand binding domain of the canonical isoform of the respective NR. Cells were cultured in Dulbecco's modified Eagle's medium (DMEM), high glucose supplemented with 10% fetal calf serum (FCS), sodium pyruvate (1 mM), penicillin (100 U mL^−1), and streptomycin (100 μg mL^−1) at 37 °C and 5% CO2 and seeded in 96-well plates (3 × 10^4 cells per well). After 24 h, medium was changed to Opti-MEM without supplements and cells were transiently transfected using Lipofectamine LTX reagent (Invitrogen, Carlsbad, CA, USA) according to the manufacturer's protocol. Five hours after transfection, cells were incubated with the test compounds in Opti-MEM supplemented with penicillin (100 U mL^−1), streptomycin (100 μg mL^−1) and 0.1% DMSO for 16 h before luciferase activity was measured using the Dual-Glo Luciferase Assay System (Promega) according to the manufacturer's protocol on a Tecan Spark luminometer (Tecan Deutschland GmbH, Crailsheim, Germany). Firefly luminescence was divided by Renilla luminescence and multiplied by 1000 resulting in relative light units (RLU) to normalize for transfection efficiency and cell growth. Fold activation was obtained by dividing the mean RLU of test compound by the mean RLU of the untreated control. All samples were tested in at least three biologically independent experiments in duplicates. For dose–response curve fitting and calculation of EC50 values, the equation “[agonist] vs. response − variable slope (four parameters)” was used in GraphPad Prism (version 7.00, GraphPad Software, La Jolla, CA, USA). For selectivity profiling, the hybrid reporter gene assay was performed with Gal4 fusion receptor plasmids for RARα, PPARα, PPARδ, VDR, CAR and LXRα. The following reference agonists were used: triiodothyronine (1 μM, THR), all-trans retinoic acid (1 μM, RAR), GW7647 (1 μM, PPARα), pioglitazone (1 μM, PPARγ), L165041 (1 μM, PPARδ), calcitriol (1 μM, VDR), CITCO (1 μM, CAR), T0901317 (1 μM, LXR), GW4064 (1 μM, FXR), bexarotene (1 μM, RXR).

[2] = target: T2, RARα (Homo sapiens, UniProt P10276); assay: Gal4-hybrid reporter gene assay RARα (selectivity); conditions: mean, n ≥ 3, Fig. 8
T2 construct: expressed in transfected cells; host or cells: HEK293T
T2 sequence (P10276 154-462 limits assumed): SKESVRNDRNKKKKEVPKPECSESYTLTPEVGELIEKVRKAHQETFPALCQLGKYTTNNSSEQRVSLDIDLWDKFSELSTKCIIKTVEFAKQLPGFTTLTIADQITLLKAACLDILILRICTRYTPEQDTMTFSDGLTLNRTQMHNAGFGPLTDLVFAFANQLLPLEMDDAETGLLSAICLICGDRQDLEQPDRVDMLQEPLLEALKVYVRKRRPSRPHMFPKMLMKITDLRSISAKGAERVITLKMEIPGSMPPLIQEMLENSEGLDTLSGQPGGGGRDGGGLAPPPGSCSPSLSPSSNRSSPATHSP
Description: as §1

[3] = target: T3, PPARδ (Homo sapiens, UniProt Q03181); assay: Gal4-hybrid reporter gene assay PPARδ (selectivity); conditions: mean, n ≥ 3, Fig. 8
T3 construct: expressed in transfected cells; host or cells: HEK293T
T3 sequence (Q03181 138-441 limits assumed): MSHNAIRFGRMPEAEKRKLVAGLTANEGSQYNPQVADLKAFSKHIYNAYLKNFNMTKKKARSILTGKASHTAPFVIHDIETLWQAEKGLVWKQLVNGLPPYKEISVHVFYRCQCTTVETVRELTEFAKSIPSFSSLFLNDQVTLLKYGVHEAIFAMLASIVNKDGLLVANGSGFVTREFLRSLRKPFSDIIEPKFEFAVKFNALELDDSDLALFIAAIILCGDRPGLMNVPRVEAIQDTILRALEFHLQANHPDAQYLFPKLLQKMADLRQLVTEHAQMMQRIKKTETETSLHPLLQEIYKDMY
Description: as §1

[4] = target: T4, VDR (Homo sapiens, UniProt P11473); assay: Gal4-hybrid reporter gene assay VDR (selectivity); conditions: mean, n ≥ 3, Fig. 8
T4 construct: expressed in transfected cells; host or cells: HEK293T
T4 sequence (P11473 97-427 limits assumed): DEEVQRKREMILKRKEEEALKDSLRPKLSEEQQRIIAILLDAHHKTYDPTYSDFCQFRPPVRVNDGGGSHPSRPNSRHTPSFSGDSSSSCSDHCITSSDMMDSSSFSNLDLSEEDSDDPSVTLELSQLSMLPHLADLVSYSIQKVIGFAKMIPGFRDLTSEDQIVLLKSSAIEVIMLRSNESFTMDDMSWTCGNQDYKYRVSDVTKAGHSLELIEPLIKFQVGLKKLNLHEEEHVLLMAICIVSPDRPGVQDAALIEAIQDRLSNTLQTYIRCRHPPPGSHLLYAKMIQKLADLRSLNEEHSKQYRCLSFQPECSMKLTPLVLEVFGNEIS
Description: as §1

[5] = test system: CAR; assay: Gal4-hybrid reporter gene assay CAR (selectivity); conditions: mean, n ≥ 3, Fig. 8
Description: as §1

[6] = target: T5, LXRα (Homo sapiens, UniProt Q13133); assay: Gal4-hybrid reporter gene assay LXRα (selectivity); conditions: mean, n ≥ 3, Fig. 8
T5 construct: expressed in transfected cells; host or cells: HEK293T
T5 sequence (Q13133 171-447 limits assumed): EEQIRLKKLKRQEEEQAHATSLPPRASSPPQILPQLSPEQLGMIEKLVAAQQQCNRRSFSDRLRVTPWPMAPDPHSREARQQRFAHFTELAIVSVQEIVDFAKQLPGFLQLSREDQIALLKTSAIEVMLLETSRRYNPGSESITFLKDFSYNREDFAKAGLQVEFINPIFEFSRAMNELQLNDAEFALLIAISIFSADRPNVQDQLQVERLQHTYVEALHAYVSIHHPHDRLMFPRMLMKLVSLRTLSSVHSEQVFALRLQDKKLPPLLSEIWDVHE
Description: as §1

SMILES | EC50 [1] [µM] | max. fold activation RXRα [1] | fold act. RXRα ([1]; 30 μM) [fold] | EC50 RXRα [1] | fold act. RARα ([2]; 30 μM) [fold] | fold act. PPARδ ([3]; 30 μM) [fold] | fold act. VDR ([4]; 30 μM) [fold] | fold act. CAR ([5]; 30 μM) [fold] | fold act. LXR ([6]; 30 μM) [fold] | also measured
CCOc1ccc(-c2cc(C(=O)O)co2)cc1 [3.1, 5-(4-Ethoxyphenyl)furan-3-carboxylic acid] | 0.9 ± 0.2 | (4.3 ± 0.5-fold) |  |  |  |  |  |  |  | fold act. RXRα ([1]; 10 μM): 4 fold; fold act. RARα ([2]; 10 μM): 6 fold; fold act. PPARδ ([3]; 10 μM): 2 fold; fold act. VDR ([4]; 10 μM): 3 fold; fold act. CAR ([5]; 10 μM): 3 fold; fold act. LXR ([6]; 10 μM): 3 fold
O=C(O)/C=C/C(=O)c1ccc(Cl)cc1Cl [4.6, (E)-4-Oxo-4-(2,4-dichlorophenyl)but-2-enoic acid] |  |  | 1 | Inactive | 1 | 1 | 1 | 1 | 1 | 
O=C(O)/C=C/C(=O)c1ccc(-c2ccccc2)cc1 [4.7, (E)-4-([1,1′-Biphenyl]-4-yl)-4-oxobut-2-enoic acid] |  |  | 1 | Inactive | 3 | 3 | 2 | 2 | 1 | 
O=C(O)/C=C/C(=O)c1ccc2ccccc2c1 [4.8, (E)-4-Oxo-4-(naphthalen-2-yl)but-2-enoic acid] | 26 ± 3 | (4.5 ± 0.5-fold) |  |  |  |  |  |  |  | fold act. RXRα ([1]; 40 μM): 5 fold; fold act. RARα ([2]; 40 μM): 3 fold; fold act. PPARδ ([3]; 40 μM): 3 fold; fold act. VDR ([4]; 40 μM): 3 fold; fold act. CAR ([5]; 40 μM): 3 fold; fold act. LXR ([6]; 40 μM): 3 fold
